Key:
[1] = target: T1, Ba/F3 cells transformed with human Tel-TrkA (Homo sapiens, UniProt P04629); assay: Proliferation of Ba/F3 cells transformed with human Tel-TrkA (Ba/F3 Tel-TrkA); format: cell-based; settings: Table 1; 48 hours, Bright Glo luminescence; read-out: Ba/F3 Tel-TrkA
T1 construct: expressed in transfected cells; host or cells: Ba/F3 murine hematopoietic progenitor cells (luciferase expressing); the other entry of the earlier key: ETV6 (P41212, Transcription factor ETV6)
Description: (§1) Compound dilutions were made in 384 well plates.
(§2) The emited luminiscence is quantified using ViewLux (PerkinElmer).

parental Ba/F3 cells = assay: Proliferation of parental (untransformed, wt) Ba/F3 cells (BAF3/WT); format: cell-based, murine; settings: Mus musculus, Table 1, parental cells with IL3, 48 hours
Procedure: as §1
Compounds were tested for their ability to inhibit the proliferation of wt Ba/F3 cells and Ba/F3 cells transformed with constitutively expressed luciferase reporter and BCR-ABL or Tel-FMS or other Tel fusion kinases (EGFR, JAK2, ALK, BMX, FGFR3, FGFR4, FGR2, FLT1, FLT3, IGF1R, INSR, KDR, KIT, LCK, LYN, MEK, MET, PDGFRα, PDGFRβ, RET, RON, ROS, SRC, SYK, TIE and TYRO) or BRafV600E. Parental Ba/F3 cells were maintained in media containing recombinant mouse IL3 and the kinase transformed Ba/F3 cells were maintained in media without IL-3. 7.5 nl of compounds were spotted to each well of 1536-well assay plates by Liquid handling System Echo 555 (Labcyte). 700 cells were then plated into each well of the assay plates in 7 uL culture media per well and compounds were tested at 0.17 nM to 10 uM in 3-fold serial dilutions. The cells were then incubated for 48 hours at 37° C. 3 uL of Bright-Glo® (Promega) was added to each well and the plates were read using ViewLux (PerkinElmer).
as §2

T1 sequence (P04629 510-796 limits assumed): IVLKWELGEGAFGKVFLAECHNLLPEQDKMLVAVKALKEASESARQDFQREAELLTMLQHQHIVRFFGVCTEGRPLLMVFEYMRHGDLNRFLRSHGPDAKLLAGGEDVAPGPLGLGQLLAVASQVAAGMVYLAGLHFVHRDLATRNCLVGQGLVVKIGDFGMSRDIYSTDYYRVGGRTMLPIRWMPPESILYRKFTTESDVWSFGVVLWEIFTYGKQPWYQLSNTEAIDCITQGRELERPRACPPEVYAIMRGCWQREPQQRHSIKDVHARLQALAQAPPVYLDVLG

IC50 [1] [nM] | Structure (SMILES) | IC50 (parental Ba/F3 cells) [nM]
24 | Cn1cccc1/C=C/C(=O)c1cnc2ccc(N3CCC[C@@H]3c3cccc(F)c3)nn12 [X-130] | > 10000
449 | CC(C)OC(=O)Nc1cnc2ccc(N3CCC[C@@H]3c3cccc(F)c3)nn12 [X-234] | > 10000
210 | O=C(NO)c1cnc2ccc(N3CCC[C@@H]3c3cccc(F)c3)nn12 [X-150] | > 10000
44 | NC(=NO)c1cnc2ccc(N3CCC[C@@H]3c3cccc(F)c3)nn12 [X-227, (Z)-6-(2-(3-fluorophenyl)pyrrolidin-1-yl)-N′-hydroxyimidazo[1,2-b]pyridazine-3-carboximidamide] | > 10000
23 | COCC(=O)Nc1cnc2ccc(N3CCC[C@@H]3c3cccc(F)c3)nn12 [X-200] | > 8830
3 | NC(=O)c1cnc2ccc(N3C[C@@H](F)C[C@@H]3c3cc(F)cc(F)c3)nn12 [X-241] | 6700
80 | [2H]C1(c2cccc(F)c2)CCCN1c1ccc2ncc(C(=O)OCC)n2n1 (stereo not shown) [X-162] | > 10000
23 | CCONC(=O)c1cnc2ccc(N3CCC[C@@H]3c3cccc(F)c3)nn12 [X-149] | > 10000
56 | N#Cc1cnc2ccc(N3CC(F)(F)C[C@@H]3c3cccc(F)c3)nn12 [X-246, (R)-6-(4,4-difluoro-2-(3-fluorophenyl)pyrrolidin-1-yl)imidazo[1,2-b]pyridazine-3-carbonitrile] | > 10000
13 | O=C(NCC(F)(F)F)c1cnc2ccc(N3CCCC3c3cccc(F)c3)nn12 (stereo not shown) [X-111] | > 10000
38 | O=C(CCc1cccc(F)c1)c1cnc2ccc(N3CCC[C@@H]3c3cccc(F)c3)nn12 [X-127, (R)-3-(3-fluorophenyl)-1-(6-(2-(3-fluorophenyl)pyrrolidin-1-yl)imidazo[1,2-b]pyridazin-3-yl)propan-1-one] | > 10000
118 | NCC(=O)Nc1cnc2ccc(N3CCC[C@@H]3c3cccc(F)c3)nn12 [X-193] | > 10000
38 | CC(=O)OCC(=O)Nc1cnc2ccc(N3CCC[C@@H]3c3cccc(F)c3)nn12 [X-172, (R)-2-(6-(2-(3-fluorophenyl)pyrrolidin-1-yl)imidazo[1,2-b]pyridazin-3-ylamino)-2-oxoethyl acetate] | > 10000
64 | NC(=O)CNC(=O)c1cnc2ccc(N3C[C@@H](F)C[C@@H]3c3cccc(F)c3)nn12 [X-117] | > 10000
19 | NC(=O)NC(=O)c1cnc2ccc(N3CC(F)(F)C[C@@H]3c3cccc(F)c3)nn12 [X-248, (R)-N-carbamoyl-6-(4,4-difluoro-2-(3-fluorophenyl)pyrrolidin-1-yl)imidazo[1,2-b]pyridazine-3-carboxamide] | > 10000
28 | NCC(=O)Nc1cnc2ccc(N3CC(F)(F)C[C@@H]3c3cccc(F)c3)nn12 [X-204, (R)-2-amino-N-(6-(4,4-difluoro-2-(3-fluorophenyl)pyrrolidin-1-yl)imidazo[1,2-b]pyridazin-3-yl)acetamide] | > 10000
34 | NC(=O)c1cnc2ccc(N3CC(F)(F)C[C@@H]3c3cccc(F)c3)nn12 [X-247, (R)-6-(4,4-difluoro-2-(3-fluorophenyl)pyrrolidin-1-yl)imidazo[1,2-b]pyridazine-3-carboxamide] | > 10000
1 | CC(C)(C)OC(=O)N1CCC(NC(=O)c2cnc3ccc(N4C[C@@H](F)C[C@@H]4c4cccc(F)c4)nn23)CC1 [X-115] | 4600
45 | CONC(=O)c1cnc2ccc(N3CCC[C@@H]3c3cccc(F)c3)nn12 [X-151] | > 10000

Further lines, the compound ahead of its results:

Structure (SMILES) | IC50 [1] [nM] | IC50 (parental Ba/F3 cells) [nM]
NC(=O)c1cnc2ccc(N3CCOC[C@H]3c3cccc(F)c3)nn12 [X-17, (R)-6-(3-(3-fluorophenyl)morpholino)imidazo[1,2-b]pyridazine-3-carboxamide] | 328 | > 10000
O=C(NCCC(F)(F)F)c1cnc2ccc(N3CCC[C@@H]3c3cccc(F)c3)nn12 [X-76] | 34 | > 10000
CC(C)C[C@@H](CO)NC(=O)c1cnc2ccc(N3CCC[C@@H]3c3cccc(F)c3)nn12 [X-104] | 697 | > 10000
CC(C)(C)[C@@H](CO)NC(=O)c1cnc2ccc(N3CCC[C@@H]3c3cccc(F)c3)nn12 [X-103] | 379 | > 10000
CC(C)CNC(=O)c1cnc2ccc(N3CCC[C@@H]3c3cccc(F)c3)nn12 [X-94] | 16 | > 10000
O=C(NCCF)c1cnc2ccc(N3CCC[C@@H]3c3cccc(F)c3)nn12 [X-96] | 7 | > 10000
CC(C)(CO)NC(=O)c1cnc2ccc(N3CCC[C@@H]3c3cccc(F)c3)nn12 [X-83] | 20 | > 10000
O=C(NCc1ccc(F)cc1)c1cnc2ccc(N3CCCC3c3cccc(F)c3)nn12 (stereo not shown) [X-24] | 236 | > 10000
O=C(NCc1ccccc1F)c1cnc2ccc(N3CCC[C@@H]3c3cccc(F)c3)nn12 [X-69] | 104 | > 10000
O=C(N[C@H]1CCCC[C@@H]1CO)c1cnc2ccc(N3CCC[C@@H]3c3cccc(F)c3)nn12 [X-28] | 112 | > 10000
[2H]C1(c2cccc(F)c2)CCCN1c1ccc2ncc(C(N)=O)n2n1 (stereo not shown) [X-8, 6-(2-(3-fluorophenyl)pyrrolidin-1-yl)imidazo[1,2-b]pyridazine-3-carboxamide] | 150 | > 10000
O=C(NC1CCCOC1)c1cnc2ccc(N3CCC[C@@H]3c3cccc(F)c3)nn12 (stereo partly shown) [X-97] | 8 | > 10000
O=C(N[C@@H]1c2ccccc2C[C@H]1O)c1cnc2ccc(N3CCC[C@@H]3c3cccc(F)c3)nn12 [X-106] | 3 | > 10000
CS(=O)(=O)N1CC[C@@H](NC(=O)c2cnc3ccc(N4CCC[C@@H]4c4cccc(F)c4)nn23)C1 [X-70] | 293 | > 10000
O=C(NC[C@@H]1CCCO1)c1cnc2ccc(N3CCC[C@@H]3c3cccc(F)c3)nn12 [X-85] | 54 | > 10000
O=C(NC(CO)(CO)CO)c1cnc2ccc(N3CCC[C@@H]3c3cccc(F)c3)nn12 [X-101] | 452 | > 10000
O=C(NCCCl)Nc1cnc2ccc(N3CCC[C@H]3c3cccc(F)c3)nn12 [X-209] | 252 | > 10000
C[C@@H]1CN(c2ccc3ncc(C#N)n3n2)[C@@H](c2cccc(F)c2)C1(F)F [X-4, 6-((2S,4R)-3,3-difluoro-2-(3-fluorophenyl)-4-methylpyrrolidin-1-yl)imidazo[1,2-b]pyridazine-3-carbonitrile] | 155 | > 10000
N#Cc1cnc2ccc(N3CCOCC3c3cccc(F)c3)nn12 (stereo not shown) [X-3, 6-(3-(3-fluorophenyl)morpholino)imidazo[1,2-b]pyridazine-3-carbonitrile] | 957 | > 10000
CC(=O)c1cnc2ccc(N3CCC[C@@H]3c3cccc(F)c3)nn12 [X-125, (R)-1-(6-(2-(3-fluorophenyl)pyrrolidin-1-yl)imidazo[1,2-b]pyridazin-3-yl)ethanone] | 219 | > 10000
O=C(N[C@@H]1CCC[C@H]1O)c1cnc2ccc(N3CCC[C@@H]3c3cccc(F)c3)nn12 [X-81] | 12 | > 10000
O=C(NCc1nc2ccccc2s1)c1cnc2ccc(N3CCC[C@@H]3c3cccc(F)c3)nn12 [X-38] | 196 | > 10000
